Test results taken from patent US20200155487A1, “Treatment of obesity and its complications” (CymaBay Therapeutics, Inc., priority 2018, published 2020).

Experiments:
NAFLD/NASH = conditions: in vivo; cited from earlier work
women and men = conditions: human, in vivo; cited from earlier work
[1] = test system: dyslipidemic overweight patients; conditions: cited from earlier work; for reduction of alkaline phosphatase: control group 4%
DIO-NASH C57BL/6J mouse = assay: Diet-induced obese mouse model of NASH (DIO-NASH), 12 weeks dosing; type: in vivo; conditions: SD in parentheses
Excerpt: The diet-induced obese mouse model of NASH (DIO-NASH) uses the C57BL/6J mouse fed a high fat diet that results in NAFLD/NASH. A protocol is described in Kristiansen et al., “Obese diet-induced mouse models of nonalcoholic steatohepatitis—tracking disease by liver biopsy”, World J. Hepatol., 8(16), 673-684 (2016). Male C57BL/6J mice were fed an atherogenic 40% high fat diet (AMLN diet, D09100301, Research Diet, US—40 kcal % fat (18% trans fat), 40 kcal % carbohydrate (20% fructose), 2% cholesterol) for 43 weeks before the start of the trial, to induce NAFLD/NASH. At week −3, the mice underwent a liver biopsy, which was scored for steatosis and fibrosis; mice with fibrosis stage <1 and steatosis score <2 were deselected prior to randomization. A stratified randomization into treatment groups was performed according to liver Collal quantification. […] At 12 weeks, analyses included body weight, plasma ALT, AST, triglycerides, and total cholesterol; liver triglycerides and total cholesterol; and NAS, fibrosis, Collal, galectin-3, and steatosis and fibrosis scores from a liver biopsy. Results are given in the table below: standard deviations are in parentheses: […]

[2] = test system: Alms1 mutant (foz/foz) mice; conditions: mouse, in vivo; cited from earlier work
obese subjects = assay: Example 2 clinical study, single agent seladelpar in obese subjects, 52 weeks; type: in vivo, human; conditions: 10, 20, and 50 mg/day for 52 weeks
Excerpt: Subjects are permitted their usual other medications (e.g. antidiabetic medications such as metformin or […]) but not glitazones, PPAR agonists, OCA, or similar medications. […] The primary efficacy outcome is the change in body weight. Other outcome measures related to the complications of obesity include change in baseline in liver fat content at 12 weeks, as measured by magnetic resonance imaging-derived proton density fat fraction (MRI-PDFF), histological improvement in NASH and fibrosis, assessed by comparing liver biopsy samples at baseline and at 52 weeks after the start of dosing; MRI-PDFF at 26 and 52 weeks; and measurements of total cholesterol, HDL-C, LDL-C, VLDL-C, TGs, apoB, and liver transaminases. The subjects also maintain health diaries, which are reviewed at each visit.

[3] = test system: patients with type 2 diabetes; conditions: in SNAC carrier, 20 and 40 mg/day; cited from earlier work
[4] = compared to placebo, alone and with atorvastatin, 8 weeks

## CCCCCCCCCCC[C@@H](C[C@@H]1OC(=O)[C@H]1CCCCCC)OC(=O)[C@H](CC(C)C)NC=O [orlistat]
NAFLD/NASH
  benefit in NAFLD/NASH compared to weight loss alone: no significant benefit

## CCc1ccc(CCOc2ccc(CC3SC(=O)NC3=O)cc2)nc1 (stereo not shown) [pioglitazone]
Women and men
  associated risks: significantly increased risk of weight gain, edema, congestive heart failure, and osteoporotic fractures

## CCO[C@H](COc1ccc(C(F)(F)F)cc1)CSc1ccc(OCC(=O)O)c(C)c1 [Seladelpar, (R)-2-(4-((2-ethoxy-3-(4-(trifluoromethyl)phenoxy)propyl)-sulfanyl)-2-methylphenoxy)acetic acid]
[1]; 8 weeks, control group 3%
  reduction of γ-glutamyl transpeptidase: 24-28%
[1]; 8 weeks
  reduction of alkaline phosphatase: 32-43%
[1]; compared to placebo, 50 or 100 mg alone or with atorvastatin 20 mg, 8 weeks, P<0.05
  reduction of apoB100: 20-38%
[1]; [4]
  raise of HDL-C: 1-12%
  reduction of LDL: 18-43%
  reduction of free fatty acids: 16-28%
  reduction of high-sensitivity C-reactive protein: 43-72%
  reduction of non-HDL-C: 18-41%
  reduction of triglycerides: 26-30%
[1]; in vivo
  depletion of small dense LDL particles: 92%
  reduction of the percentage of subjects meeting the criteria for metabolic syndrome: > 2 fold
  safety and tolerability: safe and generally well-tolerated
DIO-NASH C57BL/6J mouse; after 12 weeks dosing
  NAS post-treatment: 3.9 (0.5)
DIO-NASH C57BL/6J mouse; at 12 weeks
  Liver TC: 10 (3) mg/g liver
  Liver TG: 75 (20) mg/g liver
  Plasma TC: 257 (40) mg/dL
  Plasma TG: 38 (20) mg/dL
DIO-NASH C57BL/6J mouse; baseline biopsy before dosing
  NAS pre-treatment: 6.0 (0.8)
DIO-NASH C57BL/6J mouse; liver biopsy at 12 weeks
  Sirius red stain: 2.4 (1.8) %
DIO-NASH C57BL/6J mouse; plasma, at 12 weeks
  ALT: 107 (65) U/L
  AST: 162 (59) U/L
[2]
  NASH pathology (hepatic steatosis, inflammation, fibrosis): improves NASH pathology
Obese subjects
  improvement in obesity and complications (body weight, MRI-PDFF, liver biopsy, NAS score): dose-related improvement

## semaglutide
[3]
  efficacy of once/day oral dosing: efficacious

## CC(C)c1c(C(=O)Nc2ccccc2)c(-c2ccccc2)c(-c2ccc(F)cc2)n1CC[C@@H](O)C[C@@H](O)CC(=O)O [ATV, reference compound]
[1]; 8 weeks, atorvastatin 20 mg
  increase of γ-glutamyl transpeptidase: 2%
[1]; 8 weeks
  reduction of alkaline phosphatase: 6%
